Like-named read-outs stand apart in the source and are kept apart here.
Tests used:
β-glucoronidase = target: T1, β-glucoronidase (Escherichia coli, UniProt P05804); assay: β-Glucuronidase inhibition assay (spectrophotometric, p-nitrophenyl-β-D-glucuronide substrate); format: biochemical; settings: for % inhibition: test concentration not given
T1 construct: purchased Sigma Aldrich G7396-25KU
Description: β-Glucuronidase inhibition assay protocol: Inhibitory activity of β-Glucuronidase was determined with the help of spectrophotometric method by measuring the absorbance at 405 nm of p-nitro phenol formed from the substrate (p-nitro phenyl-β-D-glucuronide, N1627-250 mg, Sigma Aldrich). The total reaction volume was 250 μL. The compound dissolved in DMSO (100%), which becomes 2% in the ultimate assay (250 μL) and the similar conditions were used for standard (D-saccharin acid 1,4-lactone, Sigma Aldrich). The reaction mixture contained 185 μL of 0.1 M acetate buffer, 5 μL of test compound solution, 10 μL of (1U) enzyme solution (G7396-25KU, Sigma Aldrich) was incubated at 37° C. for 30 min. The plates were read on a multiplate reader (SpectraMax plus 384) at 405 nm after the addition of 50 μL of 0.4 mM p-nitrophenyl-β-D-glucuronide. All assays were performed in triplicate. IC50 Values were calculated by using EZ-Fit software (Perrella Scientific Inc., Amherst, Mass., U.S.A.). These values are the mean of three independent readings.

[1] = Cytotoxicity assay (MTT) on 3T3 mouse fibroblast cells; format: cell-based; settings: 1-30 μM tested
Description: (§1) Cytotoxicity assay Protocol: Cytotoxic activity of compounds was evaluated in 96-well flat-bottomed micro plates by using the standard MTT (3-[4,5-dimethylthiazole-2-yl]-2,5-diphenyl-tetrazolium bromide) colorimetric assay (15). For this purpose, 3T3 (mouse fibroblast) cells were cultured in Dulbecco's Modified Eagle Medium, supplemented with 5% of fetal bovine serum (FBS), 100 IU/ml of penicillin and 100 μg/ml of streptomycin in 75 cm^2 flasks, and kept in 5% CO2 incubator at 37° C. Exponentially growing cells were harvested, counted with haemocytometer and diluted with a particular medium. Cell culture with the concentration of 5×10^4 cells/ml was prepared and introduced (100 μL/well) into 96-well plates.
(§2) After overnight incubation, medium was removed and 200 μL of fresh medium was added with different concentrations of compounds (1-30 μM). After 48 hrs, 200 ptL MTT (0.5 mg/ml) was added to each well and incubated further for 4 hrs. Subsequently, 100 μLof DMSO was added to each well. The extent of MTT reduction to formazan within cells was calculated by measuring the absorbance at 540 nm, using a micro plate reader (Spectra Max plus, Molecular Devices, Calif., USA). The cytotoxicity was recorded as concentration causing 50% growth inhibition (IC50) for 3T3 cells. The percent inhibition was calculated by using the following formula
(§3) % inhibition=100−((mean of O.D of test compound−mean of O.D of negative control)/(mean of O.D of positive control−mean of O.D of negative control)*100).
(§4) The results (% inhibition) were processed by using Soft-Max Pro software (Molecular Device, USA).

[2] = system: 3T3 (mouse fibroblast) cells; assay: as above; format: cell-based; settings: 48 hrs, 1-30 μM tested
Description: as §1, §2, §3, §4

[3] = β-glucuronidase, 37° C., 30 min incubation, absorbance at 405 nm, mean of three readings, read-out: IC50

T1 sequence (P05804 whole entry): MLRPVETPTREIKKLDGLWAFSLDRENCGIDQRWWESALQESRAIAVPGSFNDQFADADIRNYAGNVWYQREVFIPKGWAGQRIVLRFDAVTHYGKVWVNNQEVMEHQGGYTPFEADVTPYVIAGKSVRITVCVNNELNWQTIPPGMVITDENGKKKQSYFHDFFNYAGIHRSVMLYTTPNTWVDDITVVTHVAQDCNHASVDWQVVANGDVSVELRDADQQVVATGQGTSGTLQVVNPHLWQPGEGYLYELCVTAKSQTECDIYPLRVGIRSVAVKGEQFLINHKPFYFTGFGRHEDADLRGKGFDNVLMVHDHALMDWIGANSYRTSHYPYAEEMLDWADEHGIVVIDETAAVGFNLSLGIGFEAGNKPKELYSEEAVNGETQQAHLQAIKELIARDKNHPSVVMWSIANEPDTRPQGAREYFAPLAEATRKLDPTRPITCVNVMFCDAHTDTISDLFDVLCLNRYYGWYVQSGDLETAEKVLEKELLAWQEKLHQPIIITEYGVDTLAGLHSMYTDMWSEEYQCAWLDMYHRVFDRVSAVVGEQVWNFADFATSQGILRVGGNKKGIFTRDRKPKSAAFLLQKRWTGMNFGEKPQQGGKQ

SMILES	IC50 (β-glucoronidase)	% inhibition (β-glucoronidase; β-glucuronidase)	IC50 at 48 h [1]	IC50 (β-glucoronidase; [3])	IC50 [2]
Oc1cccc(C(c2c[nH]c3ccc(Br)cc23)c2c[nH]c3ccc(Br)cc23)c1O [Compound 1]	1.2 ± 1.03 µM	97.8%	16.8 ± 0.997 µM		
O=C(/C=C/c1ccc(O)cc1)OC[C@@H]1C[C@H](Oc2cc(O)c3c(=O)cc(-c4ccc(O)cc4)oc3c2)[C@@H](O)[C@H](O)[C@H]1O [Compound 3]		96.9%	> 30 µM	4.5 ± 0.44 µM	
COc1ccc(C=NN2C(c3n[nH]c(=S)[nH]3)=C(O)c3ccccc3S2(=O)=O)cc1OC [Compound 5]	11.41 ± 0.04 µM	78.1%	13.8 ± 0.967 µM		
C=S1(=O)c2ccccc2C(O)=C(c2n[nH]c(=S)[nH]2)N1/N=C/c1ccc(OC)c(OC)c1OC (centres unmarked) [Compound 6]		81.0%	17.1 ± 1.41 µM	11.8 ± 0.86 µM	
CCN(CC)c1ccc(/C=N/N2C(c3n[nH]c(=S)[nH]3)=C(O)c3ccccc3S2(=O)=O)cc1 [Compound 7]		95.1%	> 30 µM	14.7 ± 1.88 µM	
COc1cccc(/C=N/N2C(c3n[nH]c(=S)[nH]3)=C(O)c3ccccc3S2(=O)=O)c1O [Compound 10]		93.4%			19.5 ± 1.07 µM
N#Cc1ccc2[nH]cc(C(c3ccccc3[N+](=O)[O-])c3c[nH]c4ccc(C#N)cc34)c2c1 [Compound 11]	34.9 ± 0.21 µM	57.3%	9.56 ± 0.134 µM		
O=C1OC(C(O)C(=O)O)C(O)C1O [D-sacharric 1,4-lactone, D-saccharic acid, 1,4-lactone, reference compound]		89.4%		45.5 ± 2.16 µM	
C[C@@H]1C[C@@H]([C@H](O)CC2CC(=O)NC(=O)C2)C(=O)[C@@H](C)C1 [cycloheximide, reference compound]			0.2 µM		
